Measured values reported in PubChem BioAssay (NCI).
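Method: 48-hour compound exposure of cells in 96-well plates, five concentrations, linear interpolation of endpoints. GI50 = concentration required for 50% inhibition of growth. At the TGI there is no net growth.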

Key:
Assay in all cases: DTP human tumour cell line panel, 48 h
[1] = test system: A498 renal
[2] = test system: OVCAR-8 ovarian
[3] = test system: BT-549 breast
[4] = test system: UO-31 renal
[5] = test system: DU-145 prostate
[6] = test system: LOX IMVI melanoma
[7] = test system: K-562 leukemia
[8] = test system: RXF 393 renal
[9] = test system: COLO 205 colon
[10] = test system: SF-295 CNS

SMILES | GI50 [1] [µM] | TGI [1] [µM] | GI50 [2] [µM] | TGI [2] [µM] | GI50 [3] [µM] | TGI [3] [µM] | GI50 [4] [µM] | TGI [4] [µM] | GI50 [5] [µM] | TGI [5] [µM] | GI50 [6] [µM] | TGI [6] [µM] | GI50 [7] [µM] | TGI [7] [µM] | GI50 [8] [µM] | TGI [8] [µM] | GI50 [9] [µM] | TGI [9] [µM] | GI50 [10] [µM] | TGI [10] [µM]
Nc1c(C(=O)c2cccc(-c3cccnc3)c2)cnn1-c1ccc(F)cc1F | 2.64 | > 23 | 8.13 | > 25 | 5.91 | > 25 | 5.56 | > 25 | 12 | > 25 | 5.76 | > 25 | 0.962 | 24.5 | 7.91 | > 25 | 1.19 | > 25 | 3.26 | > 24
COc1ccc(/C=C(\C(=O)NCc2cccnc2)S(=O)(=O)c2ccccc2)cc1OC | 2.78 | 8 | 3.84 | 25.1 | 2.45 | 6.69 | 2.69 | 11.3 | 3.06 | 12.4 | 3.09 | 11.8 | 3.33 | > 100 | 2.08 | 4.26 | 2.77 | 6.63 | 2.95 | 9.11
COc1ccc(CC(=O)c2ccc(O)cc2O)cc1 | 29.3 | > 100 | > 100 | > 100 | 66.2 | > 100 | 15.4 | > 100 | > 100 | > 100 | > 100 | > 100 | 40.3 | > 100 | > 100 | > 100 | > 100 | > 100 | 46.2 | > 100
COC(=O)Nc1nc2ccc(Oc3cccc(NC(=O)Nc4cc(C(F)(F)F)ccc4F)c3)cc2[nH]1 | 9.46 | > 25 | > 25 | > 25 | 23 | > 25 | 14.3 | > 25 | > 25 | > 25 | 9.08 | > 25 | 0.452 | > 25 | 10.4 | > 25 | 8.82 | > 25 | 14.6 | > 25
CC[C@H](CO)Nc1nc(NCc2ccccc2)c2ncn(C(C)C)c2n1 | 30.1 | > 88.7 | 29.3 | > 100 | – | 45.3 | 16.7 | 96.9 | 19.9 | > 100 | – | > 84.1 | 40.3 | > 100 | – | > 52.4 | – | 36.6 | 21.8 | > 79.6
C#CCNCCN1C(=O)c2ccc3c4c(ccc(c24)C1=O)C(=O)N(CCNCC#C)C3=O | 7.14 | 14.1 | 2.25 | 20.8 | 7.27 | 14.7 | 3.09 | 12.3 | 5.35 | 11.8 | 1.76 | 8.08 | 5.25 | 50 | 1.79 | 9.69 | 2 | 6.92 | 2.15 | 15
CCc1ccc2c(c1)C(=O)c1c-2n(CCCN=[N+]=[N-])c(=O)c2cc(OC)c(OC)cc12 | 25.8 | 84.5 | > 100 | > 100 | 76.5 | > 100 | > 100 | > 100 | > 100 | > 100 | > 100 | > 100 | > 100 | > 100 | 29.9 | > 100 | > 100 | > 100 | 56.1 | > 100
CCN1C(=O)N(CC)C2C1NN=c1s/c(=C\c3ccccn3)c(=O)n12 (stereo not given) | 0.184 | 2.74 | 3.98 | > 100 | 3.99 | > 100 | 2.51 | > 100 | 2.4 | > 100 | 5.71 | > 100 | 0.446 | > 100 | 1.66 | 5.86 | 1.16 | 11.6 | 2.72 | > 100
Cc1[nH]c(=O)nc(Nc2ccc(Cl)cc2)c1C(=O)N1CCN(CCO)CC1 | 42.2 | > 100 | 72 | > 100 | 53.8 | > 100 | > 100 | > 100 | > 100 | > 100 | > 100 | > 100 | > 100 | > 100 | 24.4 | 76.8 | > 100 | > 100 | 32.1 | > 100
CN1CCc2[nH]nc(-c3n[nH]c4c3CN(C)CC4)c2C1 | – | > 100 | – | > 100 | – | > 100 | – | > 100 | – | > 100 | – | > 100 | – | > 100 | – | > 100 | – | > 100 | – | > 100
Nc1c(C(=O)c2cccc(C#CCO)c2)cnn1-c1ccc(F)cc1 | > 18.5 | > 25 | > 25 | > 25 | > 25 | > 25 | > 25 | > 25 | > 25 | > 25 | > 25 | > 25 | > 25 | > 25 | > 25 | > 25 | > 25 | > 25 | > 25 | > 25
Nc1ccccc1C#C/C=C\C#Cc1cccc(O)c1 | 11 | 35.9 | 0.663 | 13.9 | 7.12 | 25.8 | – | 13.9 | 16.8 | > 57.7 | 0.579 | 10.8 | 3.81 | 30.6 | 0.423 | 5.02 | 8.45 | 23 | 2.19 | 8.29
Cn1cccc1-c1cc(-c2ccc(Br)cc2)[nH]c(=O)c1C#N | 54.4 | > 100 | > 100 | > 100 | 85.2 | > 100 | 69.1 | > 100 | > 100 | > 100 | > 100 | > 100 | > 100 | > 100 | > 100 | > 100 | > 100 | > 100 | > 100 | > 100
CCC[CH2][Sn]1([CH2]CCC)[O]C2C(CO)OC(n3ccc(N)nc3=O)C2[O]1 (stereo not given) | 0.271 | 1.17 | 1.66 | 3.11 | 1.42 | 2.73 | 1.16 | 2.43 | 1.34 | 2.61 | 0.384 | 1.65 | 0.297 | > 100 | 1.22 | 2.48 | 1.48 | 3.15 | 1.93 | 3.72
CN(C)CC1CCC2=C(C1=O)C(c1ccc(Cl)c(Cl)c1)C1=C(CCC(CN(C)C)C1=O)O2 (stereo not given) | 14.3 | 27.4 | 4.25 | 16 | 14.2 | 27.7 | 2.78 | 7.17 | 2.91 | 9.09 | 3.14 | 15.2 | 2.46 | 6.34 | 9.18 | 22.5 | 5.48 | 19.6 | 16.9 | 30.5
Nc1ncnc2c1c(-c1ccc(Oc3ccccc3)cc1)nn2C[C@@H]1SSC[C@H]1O | 2.18 | 5.53 | 3.35 | 14.3 | 3.58 | 11.6 | 1.07 | 3.55 | 2.26 | 8.97 | 0.272 | 1.74 | 0.501 | 15.5 | 1.82 | 5.18 | 2.14 | 7.48 | 2.7 | 9.25
N#CSCc1ccc(Cl)c(CSC#N)c1 | 0.273 | 4.04 | 0.298 | > 73.6 | 0.303 | 11.2 | 0.154 | 12.8 | 0.121 | 12.7 | 0.151 | 13.6 | 0.0576 | > 45.5 | 0.559 | 12.3 | 0.0513 | 11.4 | 3.15 | > 49.3
